Results from patent US8268786B2, “Anti-cancer tocotrienol analogues and associated methods” (First Tech International Limited, priority 2009, dated 2012).
Read-outs that look alike come from different tables or passages of the source.

Columns and labels:
[1] = test system: highly malignant+SA mouse mammary epithelial cell line; assay: MTT antiproliferative assay, +SA mouse mammary epithelial cells; assay type: cell-based
Experimental: The antiproliferative effects of Compounds 1-21 were tested using 3-(4,5-dimethylthiazol-2-yl)-2,5-diphenyl tetrasolium bromide (MTT) colorimetric assay utilizing cultures of the highly malignant+SA mouse mammary epithelial cell line maintained on serum-free media and containing 10 ng/mL epidermal growth factor (EGF) and 10 μg/mL insulin as mitogens using 24-well culture plates (6 wells/group) by MTT assay.
Cells were then divided into different treatment groups and given fresh control or treatment media every day. In growth inhibition studies, (IC50), +SA cells were treated with various doses of individual tocotrienol or tocotrienol derivatives for 4 days and then the viable cell number was determined using the MTT assay. Optical density of each sample was read at 570 nm on a microplate reader (SpectraCount, Packard BioScience Company, Meriden, Conn.) against a blank prepared from cell-free cultures. The number of cells/well was calculated against a standard curve prepared by plating various concentrations of cells, as determined by hemocytometer, at the start of each experiment. See McIntyre referenced above.
(§1) For each of the assays performed the compounds were dissolved in aqueous culture media by binding the compounds with bovine serum albumin (BSA).
(§2) An amount of each compound appropriate for the desired final compound concentration was placed in a 1.5 mL screw top glass vial and dissolved in 100 μL of 100% ethanol. Once dissolved, this ethanol/compound solution was added to a small volume of sterile 10% BSA in water and incubated overnight at 37° C. […] Ethanol was added to all treatment media such that the final ethanol concentration was the same in all treatment groups within a given experiment and was always less than 0.1%. Although the examples provided have been described in conjunction with specified amounts of ethanol and other compounds it should be understood that the invention is applicable to embodiments not having those limited concentration.

[2] = test system: ER-positive human breast cancer cells MCF7; assay: MTT antiproliferative assay, MCF7 cells; assay type: cell-based; settings: for IC50: Homo sapiens
Experimental: as §1, §2
(§3) The cell growth of MCF7 (Example 24) and MDA-MB-231 (Example 25) cell lines was measured using the MTT assay procedures described above and an MTT assay kit (TACS™, Trevogen®, Inc., Gaithersburg, Md.). After passing the cells for 3-4 times, growing cells were incubated in a 96-well plate at a density of 8×10^3 cells per well, and allowed to attach for 24 hours. Complete growth medium was then replaced with 100 μL of RPMI serum free medium (GIBCO-Invitrogen, NY) containing various doses (20, 10, 5, 2 μM) of the tested compound and the culture continued at 37° C. under 5% CO2. After 96 hours, the incubated cells were treated with MTT solution (10 μL/well) at 37° C. for 4 hours. The color reaction was stopped by the addition of solubilization/stop solution (100 μL/well). The cells continued to be incubated at 37° C. to completely dissolve the formazan product. Absorbance of the samples was determined at 570 nm with an ELISA plate reader (BioTek, VT). Absorbance readings were converted to estimated cell numbers based on a standard curve prepared by plating various concentration of cells, as determined by hemocytometer, and measuring the absorbance of those cells at the start of each experiment. The IC50 value of each compound was calculated using nonlinear regression (curve fit) of log concentration versus the number of cells/well implemented using GraphPad Prism 5.0 program. The procedure was identical for both human breast cancer cell lines MCF7 and MDA-MB-231.

[3] = test system: ER-negative human breast cancer cells MDA-MB-231; assay: MTT antiproliferative assay, MDA-MB-231 cells; assay type: cell-based; settings: for IC50: Homo sapiens
Experimental: as §1, §2, §3

[4] = test system: highly metastatic breast cancer cell line MDA-MB-231; assay: BME Cell Invasion Assay (Boyden chamber, calcein-AM); assay type: cell-based, human; settings: MDA-MB-231, 5 μM
Experimental: Anti-Invasion Assays were performed to measure the anti-invasive properties of Compounds 1-21 using a 96 well basement membrane extract “BME” Cell Invasion Assay (Cultrex®, Trevogen, Catalog# 3455-096-K) with the highly metastatic breast cancer cell line MDA-MB-231. This assay employs a simplified Boyden Chamber design with a polyethylene terephthalate membrane (8 μm). Detection of cell invasion is quantified using calcein-AM. Cells internalize calcein-AM and intracellular esterases cleave the acetomethylester moiety to generate free calcein. Free calcein fluoresces brightly, and this fluorescence may be used to quantify the number of cells that have invaded across BME. (See Tamilarasan and Borghesani, referenced above)
About […] of basement membrane extract (BME, 1×) coat was added per well. After overnight incubation at 37° C. in a 5% CO2 incubator, 50,000/50 μL of MDA-MB-231 cells in serum free RPMI medium were added to the top chamber of each well, which contained the tested compound at a treatment concentration of 5 μM. About 150 μL of RPMI medium was added to the lower chamber, which contained 10% fetal bovine serum, penicillin/streptomycin, and fibronectin (1 μL/mL) and N-formyl-met-leu-phe (10 nM) as chemoattractants. Cells were allowed to migrate to the lower chamber at 37° C. in a CO2 incubator. After 24 h, the top and bottom chambers were aspirated and washed with a washing buffer solution. About 100 μL of cell dissociation solution/Calcein-AM solution was added to the bottom chamber and incubated for 1 hour at 37° C. in a CO2 incubator. The cells internalized calcein-AM, and the intracellular esterases cleaved the acetomethylester (AM) moiety to generate free calcein. Fluorescence of the samples was determined at 485 nm excitation; 520 nm emissions were measured using a plate reader (BioTek, VT). The numbers of cells that invaded through the BME coat were calculated using a standard curve.
Differences among the various treatment groups were determined by analysis of variance (ANOVA) followed by Dunnett's t-test. Differences were considered to be statistically significant at a value of <0.05, as compared to vehicle treated controls.

[5] = MCF7, 96 h, read-out: MCF7 IC50 μM
[6] = MDA-MB-231, 96 h, read-out: MDA-MB-231 IC50 μM

With `CC(C)=CCC/C(C)=C/CC/C(C)=C/CC[C@]1(C)CCc2cc(OC(=O)NS(=O)(=O)c3ccc(C)cc3)c(C)c(C)c2O1` [Compound 8, (R)-2,7,8-trimethyl-2-((3E,7E)-4,8,12-trimethyltrideca-3,7,11-trienyl)chroman-6-yl tosylcarbamate] the “activity relative to parent γ-tocotrienol (2)” value ([1]; +SA cells, versus Compound 2) was about 2 fold, the IC50 ([1]; Mus musculus, +SA cell, 96 h) was 2 µM and the IC50 [2, 5] was 5.1 µM. The IC50 ([2]; MCF7, read-out: IC50 values (range)) was 5 to 10 µM, the “potency relative to parent natural tocotrienol” value ([2]; MCF7, 4 and 10 versus Compound 1, 8 versus Compound 2) was about 3 fold and the IC50 [3, 6] was over 10 µM.
`CC(C)=CCC/C(C)=C/CC/C(C)=C/CC[C@]1(C)CCc2cc(OC(=O)NS(=O)(=O)c3ccc(C)cc3)cc(C)c2O1` [Compound 9, (R)-2,8-dimethyl-2-((3E,7E)-4,8,12-trimethyltrideca-3,7,11-trienyl)chroman-6-yl tosylcarbamate] was tested, and the “antiproliferative activity (in words)” value ([1]; +SA cells) was “activity better than that of its parent tocotrienol”, the IC50 [2, 5] was over 10 µM and the IC50 [3, 6] was 6.6 µM. The IC50 ([3]; MDA-MB-231, read-out: IC50 (range)) was 5 to 10 µM, the “antiproliferative activity (in words)” value ([3]; MDA-MB-231) was “improved activities” and the “anti-invasive activity (in words)” value [4] was “more active than their natural tocotrienol parent compounds”.
